Laboratory results taken from article PMC8815882, “Screening the pandemic response box identified benzimidazole carbamates, Olorofim and ravuconazole as promising drug candidates for the treatment of eumycetoma” (PLoS Neglected Tropical Diseases, 2022).
pIC50: −log10 of the molar value. ≈ marks a conversion by molar mass, not a printed value. Read-outs that look alike come from different tables or passages of the source.

Legend:
[1] = test system: M. pseudomycetomatis strain Mex2A; assay: CLSI M38-A2 based in vitro susceptibility screening at 25 μM; assay type: cell-based, Madurella pseudomycetomatis; details: selected if >75% (resazurin) or >80% (XTT) fungal growth inhibited
[2] = test system: Me. romeroi strain CBS128765; assay: as above; assay type: cell-based, Medicopsis romeroi; details: selected if >75% (resazurin) or >80% (XTT) fungal growth inhibited
eumycetoma = details: cited from earlier work
[3] = test system: F. senegalensis strain CBS132257; assay: CLSI M38-A2 based in vitro susceptibility screening at 25 μM; assay type: cell-based, Falciformispora senegalensis; details: selected if >75% (resazurin) or >80% (XTT) fungal growth inhibited
[4] = test system: M. mycetomatis genome strain MM55; parameters: method as in PMID 29698504; details: parasitic DHODH inhibitors of the MMV Pathogen Box screened previously; cited from earlier work
[5] = test system: ten different M. mycetomatis isolates; parameters: method as in PMID 24945848, PMID 22964246, PMID 31904836; details: asterisk: determined in previous works ref 19-21; cited from earlier work
M. mycetomatis MM55 = assay: IC50 determination, 2-fold dilution series 16 to 0.03125 μM; assay type: cell-based, Madurella mycetomatis; details: for pIC50 / IC90: Madurella mycetomatis
[6] = test system: M. mycetomatis genome strain MM55; assay: CLSI M38-A2 based in vitro susceptibility screening (XTT or resazurin), growth at fixed concentration; assay type: cell-based, Madurella mycetomatis; details: Madurella mycetomatis; for Percent fungal survival at 100 µM: read-out: Percentage survival at 100um, 100 uM A (second replicate column)
[7] = test system: ten different M. mycetomatis isolates; assay: MIC / MIC50 determination (XTT) in ten M. mycetomatis isolates; assay type: cell-based, Madurella mycetomatis; details: Madurella mycetomatis
M. mycetomatis = assay: Drug static or cidal determination; assay type: cell-based, Madurella mycetomatis
From the text: Supplement pntd.0010159.s001.xlsx, sheet "Pandemic Box Master sheet" | column: Drug static or cidal

[8] = test system: M. mycetomatis isolate MM55; assay: M. mycetomatis grain infection model in G. mellonella larvae, survival; assay type: in vivo, Galleria mellonella; parameters: In vivo efficacy, Larvae survival %: concentration or dose not given beside the values; details: for Larvae survival rate on day ten: 20 μM per larvae at 4, 28, 52 h after infection
[9] = test system: M. tropicana strain CBS206.47; assay: CLSI M38-A2 based in vitro susceptibility screening at 25 μM; assay type: cell-based, Madurella tropicana; details: selected if >75% (resazurin) or >80% (XTT) fungal growth inhibited
[10] = MM55, Table 2, M. mycetomatis MM55, read-out: IC50
[11] = MM55, replicate 1, read-out: IC50 1
[12] = MM55, replicate 1, read-out: IC90 1
[13] = MM55, replicate 2, read-out: IC50 2
[14] = MM55, replicate 2, read-out: IC90 2
[15] = MM55, replicate 3, read-out: IC50 3
[16] = MM55, replicate 3, read-out: IC90 3
[17] = replicate A, read-out: Percentage survival at 25um, 25 um A
[18] = replicate B, read-out: Percentage survival at 25um, 25 uM B
[19] = replicate C, read-out: Percentage survival at 25um, 25 uM C
[20] = G. mellonella larvae infected with M. mycetomatis
[21] = MM55, mean of replicates, read-out: IC50 mean

## CN(C/C=C/C#CC(C)(C)C)Cc1cccc2ccccc12 [Terbinafine]
[1]
  Inhibits growth of Madurella pseudomycetomatis at 25 μM: not the Madurella species
[2]
  Inhibits growth of Medicopsis romeroi at 25 μM: inhibit the growth
eumycetoma; Senegal, 500 mg twice daily for 24-48 weeks combined with surgery
  Cure rate of patients: 30%
[3]
  Inhibits growth of Falciformispora senegalensis at 25 μM: inhibit the growth

## Cc1ccc(NC(=O)c2cc(S(=O)(=O)NC(C)(C)C)ccc2C)nc1 [MMV020289]
[4]
  In vitro activity against M. mycetomatis: no activity

## O=C(NC1CC1)c1ccc(N2CCOc3ccc(Cl)cc32)s1 [MMV020537]
[4]
  In vitro activity against M. mycetomatis: no activity

## Cc1cc(Nc2ccc(C(F)(F)F)cc2)n2ccnc2n1 [MMV011229]
[4]
  In vitro activity against M. mycetomatis: no activity

## CCC(C)n1ncn(-c2ccc(N3CCN(c4ccc(OCC5COC(Cn6cncn6)(c6ccc(Cl)cc6Cl)O5)cc4)CC3)cc2)c1=O (centres unmarked) [MMV637528, Itraconazole, reference compound]
[2]
  Inhibits growth of Medicopsis romeroi at 25 μM: did not inhibit the growth
eumycetoma; eumycetoma patients, itraconazole with surgery
  Cure rate of patients: 8% - 26%
[5]
  MIC50: 0.05 µM (≈ 0.0353 µg/mL)
  MIC range: <0.02 to 0.25 µM
M. mycetomatis MM55; [10]
  pIC50: 5.95
M. mycetomatis MM55; MM55, mean, read-out: IC50 mean
  pIC50: 5.95
M. mycetomatis MM55; MM55, read-out: IC90 mean
  IC90: 2.21 µM
M. mycetomatis MM55; [11]
  pIC50: 5.77
M. mycetomatis MM55; [12]
  IC90: 3.8 µM
M. mycetomatis MM55; [13]
  pIC50: 6.13
M. mycetomatis MM55; [14]
  IC90: 1.32 µM
M. mycetomatis MM55; [15]
  pIC50: 6.03
M. mycetomatis MM55; [16]
  IC90: 1.5 µM
[3]
  Inhibits growth of Falciformispora senegalensis at 25 μM: did not inhibit the growth
[6]; mean, read-out: Percentage survival at 25um, 25 uM mean
  activity at 25 µM: -1.04%
[6]; [17]
  activity at 25 µM: -2.88%
[6]; [18]
  activity at 25 µM: -2.55%
[6]; [19]
  activity at 25 µM: 2.31%
[6]; mean, read-out: Percentage survival at 100um, 100 uM mean
  activity at 100 µM: 2.34%
[6]; replicate (first column), read-out: Percentage survival at 100um, 100 uM A
  activity at 100 µM: -3.71%
[6]; replicate (second column), read-out: Percentage survival at 100um, 100 uM A
  activity at 100 µM: 3.66%
[6]; replicate (third column), read-out: Percentage survival at 100um, 100 uM A
  activity at 100 µM: 7.05%

## Oc1c(C(Nc2nc3ccccc3s2)c2ccc(OC(F)F)cc2)ccc2cccnc12 (centres unmarked) [MMV019724]
[7]; median MIC over ten M. mycetomatis isolates, no asterisk, read-out: MIC50
  MIC50: 4 µM (≈ 1.8 µg/mL)
[7]; isolate CBS247.48, read-out: MIC CBS247.48
  MIC: 8 µM (≈ 3.6 µg/mL)
[7]; isolate MM14, read-out: MIC MM14
  MIC: > 16 µM
[7]; isolate MM45, read-out: MIC MM45
  MIC: > 16 µM
[7]; isolate MM55, read-out: MIC MM55
  MIC: 8 µM (≈ 3.6 µg/mL)
[7]; isolate P1, read-out: MIC P1
  MIC: 4 µM (≈ 1.8 µg/mL)
[7]; isolate ParijsAl1, read-out: MIC ParijsAl1
  MIC: 2 µM (≈ 0.899 µg/mL)
[7]; isolate Peru72012, read-out: MIC Peru72012
  MIC: 2 µM (≈ 0.899 µg/mL)
[7]; isolate So1, read-out: MIC So1
  MIC: 4 µM (≈ 1.8 µg/mL)
[7]; isolate i1, read-out: MIC i1
  MIC: 2 µM (≈ 0.899 µg/mL)
[7]; isolate i11, read-out: MIC i11
  MIC: 16 µM (≈ 7.19 µg/mL)
[7]; over ten M. mycetomatis isolates, read-out: MIC50 mean
  MIC50: 4 µM (≈ 1.8 µg/mL)
M. mycetomatis
  Drug static or cidal: Static
[8]; [20]
  In vivo efficacy, Larvae survival %: 13.3%
[8]; in vivo
  In vivo efficacy, Enhanced survival compared to control?: no
M. mycetomatis MM55; [10]
  pIC50: 5.31
M. mycetomatis MM55; [21]
  pIC50: 5.31
M. mycetomatis MM55; MM55, mean of replicates, read-out: IC90 mean
  IC90: 18.2 µM
M. mycetomatis MM55; [11]
  pIC50: 5.57
M. mycetomatis MM55; [12]
  IC90: 14 µM
M. mycetomatis MM55; [13]
  pIC50: 5.53
M. mycetomatis MM55; [14]
  IC90: 19.2 µM
M. mycetomatis MM55; [15]
  pIC50: 5.05
M. mycetomatis MM55; [16]
  IC90: 21.4 µM
[6]; mean of replicates, read-out: Percentage survival at 25um, 25 uM mean
  activity at 25 µM: 9.22%
[6]; [17]
  activity at 25 µM: 14.5%
[6]; [18]
  activity at 25 µM: 1.51%
[6]; [19]
  activity at 25 µM: 11.7%
[6]; mean of replicates, read-out: Percentage survival at 100um, 100 uM mean
  activity at 100 µM: 16.7%
[6]; replicate 1, read-out: Percentage survival at 100um, 100 uM A (first replicate column)
  activity at 100 µM: 15.6%
[6]; replicate 2
  Percent fungal survival at 100 µM: 13.5%
[6]; replicate 3, read-out: Percentage survival at 100um, 100 uM A (third replicate column)
  activity at 100 µM: 20.9%

## CC(C)C(NC(=O)Cc1cccc2ccccc12)C(=O)Nc1cccc(C#N)c1 (centres unmarked) [MMV020591]
[4]
  In vitro activity against M. mycetomatis: no activity

## Cc1cc(-c2ccccc2)c(C(=O)C(=O)Nc2ccc(N3CCN(c4ncc(F)cn4)CC3)cc2)n1C [MMV1782354, Olorofim]
[1]
  Inhibits growth of Madurella pseudomycetomatis at 25 μM: able to inhibit the growth
[9]
  Inhibits growth of Madurella tropicana at 25 μM: able to inhibit the growth
[2]
  Inhibits growth of Medicopsis romeroi at 25 μM: no activity
[8]; listed as Olorofim
  Larvae survival rate on day ten: 33%
[8]; listed as olorofim
  Larvae survival rate on day ten: 33.3%
[8]; [20]
  In vivo efficacy, Enhanced survival compared to control?: yes **
  In vivo efficacy, Larvae survival %: 0.0443%
[5]
  MIC50: 0.06 µM (≈ 0.0299 µg/mL)
  MIC range: 0.004 to 0.13 µM
M. mycetomatis MM55; M. mycetomatis
  Drug static or cidal: Cidal
M. mycetomatis MM55; [10]
  pIC50: > 7.80
M. mycetomatis MM55; [21]
  pIC50: > 7.01
M. mycetomatis MM55; MM55, replicate 1, read-out: IC50 1 um
  pIC50: > 7.01
M. mycetomatis MM55; MM55, replicate 1, read-out: IC90 1 um
  IC90: 3.1 µM
M. mycetomatis MM55; MM55, replicate 2, read-out: IC50 2 um
  pIC50: > 7.01
M. mycetomatis MM55; MM55, replicate 2, read-out: IC90 2 um
  IC90: < 0.098 µM
M. mycetomatis MM55; MM55, replicate 3, read-out: IC50 3 um
  pIC50: > 7.01
M. mycetomatis MM55; MM55, replicate 3, read-out: IC90 3 um
  IC90: < 0.098 µM
[3]
  Inhibits growth of Falciformispora senegalensis at 25 μM: no activity
[6]; mean of three, M. mycetomatis MM55, read-out: Percentage survival at 25um, 25 uM mean
  activity at 25 µM: 8.22%
[6]; replicate A, M. mycetomatis MM55, read-out: Percentage survival at 25um, 25 um A
  activity at 25 µM: 5.03%
[6]; replicate B, M. mycetomatis MM55, read-out: Percentage survival at 25um, 25 uM B
  activity at 25 µM: 11.4%
[6]; replicate C, M. mycetomatis MM55, read-out: Percentage survival at 25um, 25 uM C
  activity at 25 µM: 8.27%
[6]; mean of three, M. mycetomatis MM55, read-out: Percentage survival at 100um, 100 uM mean
  activity at 100 µM: 8.8%
[6]; replicate 1, M. mycetomatis MM55, read-out: Percentage survival at 100um, 100 uM A (first replicate column)
  activity at 100 µM: 0.903%
[6]; replicate 2, M. mycetomatis MM55
  Percent fungal survival at 100 µM: 10.2%
[6]; replicate 3, M. mycetomatis MM55, read-out: Percentage survival at 100um, 100 uM A (third replicate column)
  activity at 100 µM: 15.3%
